Test system: NLRP3 inflammasome
Assay: IL-1β Secretion Assay (NLRP3-dependent IL-1β secretion in PMA-differentiated THP-1 cells, nigericin activation, HTRF)
Assay type: cell-based
Settings: Homo sapiens, THP-1, THP-1 cells, 100 ng/mL PMA 24 h, compound 20 h, 2.5 μM Nigericin 3 h; read-out: IC50 IL-1β Inhibition
Method in brief: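 IL-1β release, quantified by HTRF after nigericin activation of the NLRP3 inflammasome, was the read-out. A logistic fit of percent inhibition gave IC50.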

C[C@]1(O)C[C@@H](Nc2nnc(-c3ccc(OC(F)(F)F)cc3O)c3cccn23)C1 [Compound I-523]
IC50: 10 to 100 nM

CC(C)(O)CN1CCC[C@@H](Nc2nnc(-c3c(O)cc(C(F)(F)F)cc3F)c3cccn23)C1 [Compound I-417]
IC50: 1 to 10 nM

CC#Cc1cc(C(F)(F)F)ccc1-c1nnc(N[C@@H]2CCCN(C)C2)c2cnccc12 [Compound I-228, (R)—N-(1-methylpiperidin-3-yl)-1-(2-(prop-1-yn-1-yl)-4-(trifluoromethyl)phenyl)pyrido[3,4-d]pyridazin-4-amine]
IC50: 1 to 10 nM

CN1C[C@H](F)C[C@@H](Nc2nnc(-c3ccc(C4CC4)cc3C(F)F)c3cccn23)C1 [Compound I-507]
IC50: 10 to 100 nM

C[C@@H](O)CNc1nnc(-c2ccc(C(F)(F)F)cc2OC(F)F)c2c(F)ccn12 [Compound I-440]
IC50: 10 to 100 nM

CCN1CCC[C@@H](Nc2nnc(-c3c(O)cc(Cl)cc3F)c3cccn23)C1 [Compound I-433]
IC50: < 1 nM

CN1CCOCC(Nc2nnc(-c3ccc(C(F)(F)F)cc3O)c3cnccc23)C1 (stereo not shown) [Compound I-260]
IC50: 10 to 100 nM

CC#Cc1ccc(-c2nnc(N[C@@H]3CCCN(C)C3)c3ccccc23)c(O)c1 [Compound I-227]
IC50: < 1 nM

COc1ccc(-c2nnc(N[C@@H]3CCCN(C)C3)n3cccc23)c(C(F)(F)F)c1 [Compound I-370]
IC50: 1 to 10 nM

C[C@]1(O)C[C@@H](Nc2nnc(-c3c(O)cc(OC(F)F)cc3F)c3cccn23)C1 [Compound I-618]
IC50: 10 to 100 nM

Cc1cc(F)c(-c2nnc(N[C@@H]3C[C@@H](F)CN(C)C3)n3cccc23)c(OC(F)F)c1 [Compound I-462]
IC50: 10 to 100 nM

CN1C[C@@H](F)C[C@H](Nc2nnc(-c3ccc(C(F)(F)F)cc3O)c3ccncc23)C1 [Compound I-278]
IC50: 10 to 100 nM

CCOC(=O)[C@@H]1CC[C@@H](Nc2nnc(-c3ccc(C(F)(F)F)cc3O)c3ccncc23)CN1 [Compound I-266, Ethyl (2S,5R)-5-((1-(2-hydroxy-4-(trifluoromethyl)phenyl)pyrido[3,4-d]pyridazin-4-yl)amino)piperidine-2-carboxylate]
IC50: < 1 nM

Oc1cc(C(F)(F)F)ccc1-c1nnc(O[C@@H]2CCCNC2)c2ccccc12 [Compound I-21]
IC50: 10 to 100 nM

COc1cc(C(F)(F)F)ccc1-c1nnc(N[C@@H]2CCCCNC2)c2cnccc12 [Compound I-251]
IC50: 100 to 300 nM

Cc1ccc(-c2nnc(N[C@@H]3CCCN(C)C3)c3cnccc23)c(OC(F)F)c1 [Compound I-134]
IC50: 1 to 10 nM

FC(F)Oc1cc(C(F)(F)F)ccc1-c1nnc(N[C@@H]2CCCCCNC2)n2cccc12 [Compound I-324, 1-[2-(difluoromethoxy)-4-(trifluoromethyl)phenyl]-N-[(3R)-azocan-3-yl]pyrrolo[1,2-d][1,2,4]triazin-4-amine]
IC50: 1 to 10 nM

Cc1cccc(O)c1-c1nnc(N[C@@H]2CCCN(C)C2)c2cnccc12 [Compound I-105]
IC50: 1 to 10 nM

N[C@H]1CCC[C@@H](Nc2nnc(-c3ccc(C(F)(F)F)cc3OC(F)F)c3cccn23)C1 [Compound I-378]
IC50: 10 to 100 nM

OCCN1CCC[C@@H](Nc2nnc(-c3ccc(C(F)(F)F)cc3O)c3c2CCCC3)C1 [Compound I-62, 2-[4-[[(3R)-1-(2-hydroxyethyl)-3-piperidyl]amino]-5,6,7,8-tetrahydrophthalazin-1-yl]-5-(trifluoromethyl)phenol]
IC50: < 1 nM

CN1CCC[C@@H](Nc2nnc(-c3ccc(C(F)(F)F)cc3-c3cnn(C)c3)c3cnccc23)C1 [Compound I-189]
IC50: 10 to 100 nM

CN(C)C(C)(C)CNc1nnc(-c2ccc(C(F)(F)F)cc2O)c2ccncc12 [Compound I-275]
IC50: 1 to 10 nM

Oc1cc(C(F)(F)F)ccc1-c1nnc(N[C@@H]2CCCN(C3CCOCC3)C2)c2cnccc12 [Compound I-279]
IC50: < 1 nM

CN1CCC[C@@H](Nc2nnc(-c3ccc(C4CC4)cc3O)c3ccccc23)C1 [Compound I-49]
IC50: < 1 nM

CN1CCCC(Cc2nnc(-c3ccc(C(F)(F)F)cc3O)c3ccncc23)C1 (stereo not shown) [Compound I-567]
IC50: 10 to 100 nM

— US20240262806A1, “INHIBITORS OF NLRP3” (PTC THERAPEUTICS, INC., priority 2021, published 2024)
